Test results from patent publication US6221865A, “Inhibitors of protein isoprenyl transferases” (priority 1998, dated 2001).
Counter-ions that a name gives are not always drawn.

biological target: T1, protein farnesyltransferase (Rattus norvegicus, UniProt Q02293+Q04631); experiment: Inhibition of farnesyltransferase (scintillation proximity assay, rat brain enzyme, biotin-K Ras B fragment substrate); format: biochemical; conditions: 1 × 10^-5 M (Table 1)
T1 construct: The enzyme is purified according to Reiss, Y., et al., Cell, 62: 81-88 (1990), utilizing steps one through three; from tissue; host or cells: rat brain
T1 sequence (Q02293 whole entry, the tested form may be a part, one chain of several): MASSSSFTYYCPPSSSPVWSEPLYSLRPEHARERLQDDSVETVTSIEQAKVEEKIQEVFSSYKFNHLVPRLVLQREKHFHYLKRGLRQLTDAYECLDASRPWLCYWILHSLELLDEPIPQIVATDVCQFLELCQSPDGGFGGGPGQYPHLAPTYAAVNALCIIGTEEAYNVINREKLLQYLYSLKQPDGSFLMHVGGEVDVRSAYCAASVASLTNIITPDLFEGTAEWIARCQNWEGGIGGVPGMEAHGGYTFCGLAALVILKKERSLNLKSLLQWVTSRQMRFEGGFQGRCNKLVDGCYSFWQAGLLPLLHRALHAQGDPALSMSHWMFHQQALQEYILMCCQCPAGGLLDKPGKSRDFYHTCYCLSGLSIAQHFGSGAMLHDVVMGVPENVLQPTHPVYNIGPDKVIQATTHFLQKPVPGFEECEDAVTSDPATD
Procedure, shortened: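 Enzyme from rat brain, partly purified (steps one to three), assayed by SPA kit using 0.1 mM final biotin-K Ras B peptide as prenyl acceptor rather than biotin-lamin. Activity given as percent inhibition.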

Row | Structure (SMILES) | % inhibition of farnesyltransferase at 1 × 10^-5 M [%]
1 | CSCC[C@H](NC(=O)c1ccc(CNc2cc(C)ns2)cc1-c1ccccc1)C(=O)O [Example 373] | 76
2 | CSCC[C@H](NC(=O)c1ccc(CNc2cccc(O)c2)cc1-c1ccccc1)C(=O)O [Example 676] | 76
3 | CSCC[C@H](NC(=O)c1ccc(NC(=O)Cc2ccccc2[N+](=O)[O-])cc1-c1ccccc1)C(=O)O [Example 757] | 58
4 | COc1cc(Cl)ccc1C(=O)Nc1ccc(C(=O)N[C@@H](CCSC)C(=O)O)c(-c2ccccc2)c1 [Example 753] | 55
5 | CSCC[C@H](NC(=O)c1ccc(CNc2cccc(CO)c2)cc1-c1ccccc1)C(=O)O [Example 680] | 58
6 | CSCC[C@H](NC(=O)c1ccc(CNc2ccc(C(=O)c3ccccc3)cc2)cc1-c1ccccc1)C(=O)O [Example 702] | 79
7 | CSCC[C@H](NC(=O)c1ccc(CNCc2cc(Cl)cc(Cl)c2)cc1-c1ccccc1)C(=O)O [Example 712] | 69
8 | CSCC[C@H](NC(=O)c1ccc(CN[C@H](CC2CCCCC2)[C@H](O)[C@H](O)CC(C)C)cc1-c1ccccc1)C(=O)O [Example 715] | 67

same assay, conditions: 1 × 10^-6 M (Table 2)

Row | Structure (SMILES) | % inhibition of farnesyltransferase at 1 × 10^-6 M [%]
9 | CSCC[C@H](NC(=O)c1ccc(CN(C)CC(O)CO)cc1-c1ccccc1C)C(=O)O (stereo partly drawn) [Example 719] | 90
10 | COc1ccccc1CNCc1ccc(C(=O)N[C@@H](CCSC)C(=O)O)c(-c2ccccc2)c1 [Example 650] | 68
11 | CNCC(=O)Nc1ccc(C(=O)N[C@@H](CCSC)C(=O)O)c(-c2ccccc2)c1 [Example 749] | 84
12 | CSCC[C@H](NC(=O)c1ccc(CNc2ccccc2N2CCCCC2)cc1-c1ccccc1)C(=O)O [Example 673] | 59
13 | CSCCC(NC(=O)c1ccc(NC(=O)Cc2cscn2)cc1-c1ccccc1)C(=O)O (stereo not drawn) [Example 162] | 12
14 | CSCC[C@H](NC(=O)c1ccc(CNc2ccccc2CCO)cc1-c1ccccc1)C(=O)O [Example 671] | 36
15 | CSCC[C@H](NC(=O)c1ccc(NCC(CO)CC2CCCCC2)cc1-c1ccccc1C)C(=O)O (stereo partly drawn) [Example 479] | 95
16 | CSCC[C@H](NC(=O)c1ccc(CN(C(=O)OC(C)(C)C)C(CC2CCCCC2)CC2CCCCC2)cc1-c1ccccc1C)C(=O)O [Example 886] | 35
17 | CSCC[C@H](NC(=O)c1ccc(NC(=O)C[C@H]2C[C@@H](C(C)=O)C2(C)C)cc1-c1ccccc1)C(=O)O [Example 751] | 32
18 | CSCC[C@H](NC(=O)c1ccc(COCc2ccsc2)cc1-c1ccccc1C)C(=O)[O-].[Li+] [Example 274] | 94
19 | CCOC[C@H](CC1CCCCC1)OCc1ccc(C(=O)N[C@@H](CCSC)C(=O)O)c(-c2ccccc2C)c1 [Example 525] | 99
20 | CCS(=O)(=O)C[C@H](CC1CCCCC1)NCc1ccc(C(=O)N[C@@H](CCSC)C(=O)O)c(-c2ccccc2C)c1 [Example 620] | 98
21 | CSCC[C@H](NC(=O)c1ccc(CNCCN(C(C)C)C(C)C)cc1-c1ccccc1)C(=O)O [Example 636] | 72
22 | CSCC[C@H](NC(=O)c1ccc(COCCCC2CCCCC2)cc1-c1ccccc1C)C(=O)O [Example 405] | 98
23 | CSCC[C@H](NC(=O)c1ccc(CN(CC(C)C)C(CC2CCCCC2)CC2CCCCC2)cc1-c1ccccc1C)C(=O)O [Example 908] | 88
24 | CSCCC(NC(=O)c1ccc(NC(=O)C2CCCNC2)cc1-c1ccccc1)C(=O)O (stereo not drawn) [Example 231] | 50
25 | CSCC[C@H](NC(=O)c1ccc(OC/C=C(\C)CCC=C(C)C)cc1-c1ccccc1C)C(=O)O [Example 546] | 97

same assay, conditions: 1 × 10^-7 M (Table 3)

Row | Structure (SMILES) | % inhibition of farnesyltransferase at 1 × 10^-7 M [%]
26 | CSCC[C@H](NC(=O)c1ccc(COCc2ccccc2)cc1-c1ccccc1C)C(=O)NS(=O)(=O)c1ccccc1 [Example 580] | 90
27 | CSCC[C@H](NC(=O)c1ccc(CSc2nnc[nH]2)cc1-c1ccccc1C)C(=O)O [Example 735] | 96
28 | CCSCC(CC1CCCCC1)N(Cc1ccc(C(=O)N[C@@H](CCSC)C(=O)O)c(-c2ccccc2C)c1)CC(C)C (stereo partly drawn) [Example 945] | 80
29 | CSCC[C@H](NC(=O)c1ccc(CNc2ccc(Oc3ccccc3)cc2)cc1-c1ccccc1C)C(=O)O [Example 864] | 84
30 | CSCC[C@H](NC(=O)c1ccc(CN(c2ccccc2)S(=O)(=O)c2ccc(C)cc2)cc1-c1ccccc1C)C(=O)O [Example 770] | 91
31 | CSCC[C@H](NC(=O)c1ccc(COCCc2ccco2)cc1-c1ccccc1C)C(=O)[O-].[Li+] [Example 531] | 74
32 | COc1ncc(COCc2ccc(C(=O)N[C@@H](CCSC)C(=O)O)c(-c3ccccc3C)c2)s1 [Example 896] | 96
33 | CSCC[C@H](NC(=O)c1ccc(CSCCc2ccccc2)cc1-c1ccccc1C)C(=O)[O-].[Li+] [Example 562] | 95

same assay, conditions: 1 × 10^-8 M (Table 4)

Row | Structure (SMILES) | % inhibition of farnesyltransferase at 1 × 10^-8 M [%]
34 | CSCC[C@H](NC(=O)c1ccc(CO[C@H](CSc2ccccc2)CC2CCCCC2)cc1-c1ccccc1C)C(=O)O [Example 884] | 94
35 | CSCC[C@H](NC(=O)c1ccc(CN(Cc2ccccc2)c2cccc(C(C)=O)c2)cc1-c1ccccc1C)C(=O)O [Example 845] | 85
36 | CSCC[C@H](NC(=O)c1ccc(COCc2ccc(-c3ccc(Cl)cc3)o2)cc1-c1ccccc1C)C(=O)NS(=O)(=O)c1ccccc1 [Example 819] | 76
37 | CSCC[C@H](NC(=O)c1ccc(CN(Cc2ccccc2)c2ccc([N+](=O)[O-])cc2)cc1-c1ccccc1C)C(=O)O [Example 843] | 96
38 | CSCC[C@H](NC(=O)c1ccc(COCc2cccc(Cl)c2)cc1-c1ccccc1C)C(=O)[O-].[Li+] [Example 934] | 71
39 | CSCC[C@H](NC(=O)c1ccc(COCCc2ccc(Cl)cc2Cl)cc1-c1ccccc1C)C(=O)[O-].[Li+] [Example 591] | 82
40 | CSCC[C@H](NC(=O)c1ccc(CN(Cc2ccccc2)c2ccc(SC)cc2)cc1-c1ccccc1C)C(=O)[O-].[Li+] [Example 852] | 79
41 | CCSC[C@H](CC1CCCCC1)N(C=O)Cc1ccc(C(=O)N[C@@H](CCSC)C(=O)O)c(-c2ccccc2C)c1 [Example 946] | 52
42 | CSCC[C@H](NC(=O)c1ccc(CN(Cc2ccccc2)c2ccc(C(F)(F)F)cc2)cc1-c1ccccc1C)C(=O)O [Example 853] | 85
43 | CCCCS(=O)(=O)N(CCCc1ccccc1)Cc1ccc(C(=O)N[C@@H](CCSC)C(=O)O)c(-c2ccccc2C)c1 [Example 927] | 74
44 | COc1cccc(CN(Cc2ccc(C(=O)N[C@@H](CCSC)C(=O)O)c(-c3ccccc3C)c2)c2ccccc2)c1 [Example 779] | 70

same assay, conditions: Table 6, ** = 0.01 μM (footnote); title prints 0.01 mM

Row | Structure (SMILES) | % inhibition at 0.01 μM (**) [%]
45 | CCSCC(CC1CCCCC1)NCc1cc(-c2ccccc2C)c(C(=O)N[C@@H](CCSC)C(=O)O)cc1OC (stereo partly drawn) [Example 1337] | 83

same assay, conditions: read-out: % inhibition at 0.01 μM (**); Table 6, ** = 0.01 μM (footnote); title prints 0.01 mM

Row | Structure (SMILES) | inhibition at 0.01 µM [%]
46 | CSCC[C@H](NC(=O)c1ccc(CN2CC[C@H]2COCC2CCCCC2)cc1-c1ccccc1C)C(=O)O [Example 1114, N-[4-(2(S)-cyclohexylmethoxymethylazetidin-1-ylmethyl)-2-(2-methylphenyl)benzoyl]methionine] | 83
47 | CSCC[C@H](NC(=O)c1ccc(CC(CO)CCC2CCCCC2)cc1-c1ccccc1C)C(=O)O (stereo partly drawn) [Example 1299, N-[4-(2-(2-Cyclohexylethyl)-1-hydroxyprop-3-yl)-2-(2-methylphenyl)benzoyl]methionine Lithium Salt] | 96

same assay, conditions: read-out: % inhibition of farnesyltransferase at 1 × 10^-6 M; 1 × 10^-6 M (Table 2)

Row | Structure (SMILES) | inhibition at 1 µM [%]
48 | CSCC[C@H](NC(=O)c1ccc(S(=O)(=O)N(Cc2ccccc2)c2ccccc2)cc1-c1ccccc1C)C(=O)O [Example 768, N-[4-(N-Benzyl-N-phenylaminosulfonyl)-2-(2-methylphenyl)benzoyl]methionine lithium salt] | 67
49 | CSCC[C@H](NC(=O)c1ccc(-c2ccccc2-c2ccccc2)cc1-c1ccccc1C)C(=O)O [Example 786, N-[4-(2-phenylphenyl)-2-(2-methylphenyl)benzoyl]methionine lithium salt] | 34
50 | CSCC[C@H](NC(=O)c1ccc(CNC(C)(C)CC2CCCCC2)cc1-c1ccccc1C)C(=O)O [Example 308] | 62
51 | CSCC[C@H](NC(=O)c1ccc(C=Cc2ccccc2Cc2ccccc2)cc1-c1ccccc1C)C(=O)O [Example 457, N-[4-(2-(2-benzylphenyl)ethenyl)-2-(2-methylphenyl)benzoyl]methionine lithium salt] | 92
52 | CSCC[C@H](NC(=O)c1ccc(CN(C)C(C)(C)Cc2ccccc2)cc1-c1ccccc1C)C(=O)O [Example 309] | 98
53 | Cc1ccccc1-c1cc(CN(C2CC2)C(C)(C)Cc2ccccc2)ccc1C(=O)N[C@@H](CCS(C)(=O)=O)C(=O)O [Example 319] | 98

same assay, conditions: read-out: % inhibition of farnesyltransferase at 1 × 10^-8 M; 1 × 10^-8 M (Table 4)

Row | Structure (SMILES) | inhibition at 0.01 µM [%]
54 | CSCC[C@H](NC(=O)c1ccc(CN2CCC[C@H]2COc2ccccc2)cc1-c1ccccc1C)C(=O)O [Example 991, N-[4-(2-phenoxymethylpyrrolidin-1-ylmethyl)-2-(2-methylphenyl)benzoyl]methionine] | 69
